According to patent US10597388B2, “Pyridazinone herbicides” (FMC CORPORATION, priority 2014, dated 2020):

How the values were obtained:
Type in all cases: in vivo
[1] = system: chickweed (common chickweed, Stellaria media); assay: Test C greenhouse herbicide test, postemergence
Method in brief: (§1)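 Seedlings are raised in pots of peat moss–vermiculite medium with starter nutrients, then receive postemergence test chemical at the 1- to 4-leaf stage. They are kept in the greenhouse 13 to 15 d and scored visually versus controls, 0 meaning no effect and 100 complete control.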

kochia (Kochia scoparia) = assay: Test C greenhouse herbicide test, postemergence
Method in brief: as §1

[2] = system: oat, wild (wild oat, Avena fatua); assay: Test C greenhouse herbicide test, postemergence
Method in brief: as §1

[3] = system: barnyardgrass (Echinochloa crus-galli); assay: Test C greenhouse herbicide test, pre- and postemergence
Method in brief: (§2)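 Each species was treated both before emergence, in a loam–sand soil mix, and after emergence, as 1- to 4-leaf seedlings in peat-based potting medium. Plants stayed in the greenhouse 13 to 15 d, then were scored from 0 (no effect) to 100 (complete control) relative to controls.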

[4] = system: pigweed (Amaranthus retroflexus); assay: as above
Method in brief: as §2

[5] = system: ragweed (common ragweed, Ambrosia elatior); assay: as above
Method in brief: as §2

[6] = system: velvetleaf (Abutilon theophrasti); assay: as above
Method in brief: as §2

[7] = system: nutsedge, yellow (yellow nutsedge, Cyperus esculentus); assay: as above
Method in brief: as §2

soybean (Glycine max) = assay: as above
Method in brief: as §2

[8] = system: ryegrass, Italian (Italian ryegrass, Lolium multiflorum); assay: as above
Method in brief: as §2

[9] = system: galium (catchweed bedstraw, Galium aparine); assay: as above
Method in brief: as §2

[10] = system: blackgrass (Alopecurus myosuroides); assay: as above
Method in brief: as §2

[11] = system: galium (catchweed bedstraw, Galium aparine); assay: Test A greenhouse herbicide test, postemergence
Method in brief: (§3)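 Greenhouse postemergence test: formulated chemicals sprayed on one- to two-leaf plants (2 to 10 cm), grown in loam soil blended with sand. Injury assessed visually about 10 d later against untreated controls, scored 0 (no effect) to 100 (complete control).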

[12] = system: blackgrass (Alopecurus myosuroides); assay: Test A greenhouse herbicide test, postemergence
Method in brief: as §3

[13] = Postemergence, 31 g ai/ha, 0 to 100 scale (0 no effect, 100 complete control)
[14] = Postemergence, 125 g ai/ha, scale 0 to 100, 0 is no effect, 100 is complete control
[15] = Postemergence, 250 g ai/ha, scale 0 to 100, 0 no effect, 100 complete control, 13 to 15 d
[16] = postemergence, 62 g ai/ha, scale 0 to 100, 0 no effect, 100 complete control
[17] = Preemergence, 31 g ai/ha, scale 0 to 100, 0 is no effect, 100 is complete control
[18] = Preemergence, 62 g ai/ha, scale 0 to 100, 0 is no effect, 100 is complete control
[19] = Preemergence, 125 g ai/ha, scale 0 to 100, 0 is no effect, 100 is complete control
[20] = Preemergence, 250 g ai/ha, scale 0 to 100, 0 no effect, 100 complete control
[21] = 125 g ai/ha, visual rating after approx. 10 d, 0 to 100 scale (0 no effect, 100 complete control)
[22] = 500 g ai/ha, 0 to 100 scale, 0 is no effect, 100 is complete control

SMILES: Cc1cc2ccccc2c(-c2c(O)c(C)nn(C)c2=O)c1C [Compound 34]
- Chickweed plant response rating [1, 13]: 90
- Plant response rating, Chickweed [1, 14]: 90
- Plant response rating, Chickweed [1, 15]: 95
- Chickweed plant response rating [1, 16]: 90
- Kochia plant response rating (kochia (Kochia scoparia); [13]): 10
- Plant response rating, Kochia (kochia (Kochia scoparia); [14]): 60
- Plant response rating, Kochia (kochia (Kochia scoparia); [15]): 85
- Kochia plant response rating (kochia (Kochia scoparia); [16]): 45
- Oat, Wild plant response rating [2, 13]: 80
- Plant response rating, Oat, Wild [2, 14]: 90
- Plant response rating, Oat, Wild [2, 15]: 90
- Oat, Wild plant response rating [2, 16]: 85
- Barnyardgrass plant response rating [3, 13]: 20
- Plant response rating, Barnyardgrass [3, 14]: 35
- Plant response rating, Barnyardgrass [3, 15]: 35
- Plant response rating, Barnyardgrass [3, 17]: 60
- Plant response rating, Barnyardgrass [3, 18]: 55
- Plant response rating, Barnyardgrass [3, 19]: 65
- Barnyardgrass plant response rating [3, 20]: 75
- Barnyardgrass plant response rating [3, 16]: 25
- Pigweed plant response rating [4, 13]: 90
- Plant response rating, Pigweed [4, 14]: 80
- Plant response rating, Pigweed [4, 15]: 98
- Plant response rating, Pigweed [4, 17]: 100
- Plant response rating, Pigweed [4, 18]: 100
- Plant response rating, Pigweed [4, 19]: 100
- Pigweed plant response rating [4, 20]: 100
- Pigweed plant response rating [4, 16]: 85
- Ragweed plant response rating [5, 13]: 85
- Plant response rating, Ragweed [5, 14]: 95
- Plant response rating, Ragweed [5, 15]: 95
- Plant response rating, Ragweed [5, 17]: 80
- Plant response rating, Ragweed [5, 18]: 80
- Plant response rating, Ragweed [5, 19]: 90
- Ragweed plant response rating [5, 20]: 95
- Ragweed plant response rating [5, 16]: 98
- Velvetleaf plant response rating [6, 13]: 50
- Plant response rating, Velvetleaf [6, 14]: 100
- Plant response rating, Velvetleaf [6, 15]: 90
- Plant response rating, Velvetleaf [6, 18]: 80
- Plant response rating, Velvetleaf [6, 19]: 85
- Velvetleaf plant response rating [6, 20]: 98
- Velvetleaf plant response rating [6, 16]: 80
- Nutsedge, Yellow plant response rating [7, 13]: 45
- Plant response rating, Nutsedge, Yellow [7, 14]: 85
- Plant response rating, Nutsedge, Yellow [7, 15]: 85
- Plant response rating, Nutsedge, Yellow [7, 17]: 25
- Plant response rating, Nutsedge, Yellow [7, 18]: 25
- Plant response rating, Nutsedge, Yellow [7, 19]: 35
- Nutsedge, Yellow plant response rating [7, 20]: 65
- Nutsedge, Yellow plant response rating [7, 16]: 60
- Soybean plant response rating (soybean (Glycine max); [13]): 5
- Plant response rating, Soybean (soybean (Glycine max); [14]): 15
- Plant response rating, Soybean (soybean (Glycine max); [15]): 5
- Plant response rating, Soybean (soybean (Glycine max); [18]): 10
- Plant response rating, Soybean (soybean (Glycine max); [19]): 0
- Soybean plant response rating (soybean (Glycine max); [20]): 5
- Soybean plant response rating (soybean (Glycine max); [16]): 5
- Ryegrass, Italian plant response rating [8, 13]: 80
- Plant response rating, Ryegrass, Italian [8, 14]: 90
- Plant response rating, Ryegrass, Italian [8, 15]: 90
- Plant response rating, Ryegrass, Italian [8, 17]: 45
- Plant response rating, Ryegrass, Italian [8, 18]: 85
- Plant response rating, Ryegrass, Italian [8, 19]: 85
- Ryegrass, Italian plant response rating [8, 20]: 95
- Ryegrass, Italian plant response rating [8, 16]: 80
- Galium plant response rating [9, 13]: 90
- Plant response rating, Galium [9, 14]: 95
- Plant response rating, Galium [9, 15]: 95
- Plant response rating, Galium [9, 17]: 95
- Plant response rating, Galium [9, 18]: 95
- Plant response rating, Galium [9, 19]: 90
- Galium plant response rating [9, 20]: 100
- Galium plant response rating [9, 16]: 95
- Blackgrass plant response rating [10, 13]: 10
- Plant response rating, Blackgrass [10, 14]: 35
- Plant response rating, Blackgrass [10, 15]: 60
- Plant response rating, Blackgrass [10, 17]: 5
- Plant response rating, Blackgrass [10, 18]: 50
- Plant response rating, Blackgrass [10, 19]: 85
- Blackgrass plant response rating [10, 20]: 90
- Blackgrass plant response rating [10, 16]: 10
- Plant response rating, Galium [11, 21]: 90
- Galium plant response rating [11, 22]: 100
- Plant response rating, Blackgrass [12, 21]: 80
- Blackgrass plant response rating [12, 22]: 90
